One experiment concerns U87-MG cells. Kind of experiment: CCK assay of cell proliferation inhibition in human glioblastoma cells. In kind it is cell-based. Conditions: 0, 1, 2, and 4 μM, 48 hours, 450 nm. How it is done: Human glioblastoma cell line U87-MG cells were seeded at a density of 1×10^4 cells/well in a 96-well plate and cultured for 24 hours. Thereafter, the cells were treated with DMSO as a control and the compound AON-MG23-01 or AON-MG23-02 of the present invention, and then cultured for 48 hours. The compound of the present invention was treated at various concentrations of 0, 1, 2, and 4 μM. 10 μL of a CCK reagent was added and reacted for an hour, and the absorbance was then measured at 450 nm.

The subject of experiment [1] is U87-MG. Kind of experiment: Matrigel Transwell invasion (metastasis inhibition) in human glioblastoma. In kind it is cell-based. Conditions: 0, 1, 2, and 4 μM, 24 hours, compared to the untreated control. How it is done:
A human glioblastoma cell line U87-MG was seeded at a density of 8×10^4 cells/well on Matrigel-coated filters (Transwell invasion chambers, Corning), and the cells were then treated with the compound (AON-MG23-01 or AON-MG23-02; each at 0, 1, 2, and 4 μM) of the present invention, and cultured at 37 °C in a CO2 incubator for 24 hours. After the culturing was completed, the cells were fixed and stained using the Diff-Quick Stain kit (Sysmex, Kobe, Japan). Images of the stained cells were taken under a microscope, the cells were counted using Image J software, and statistical analysis was then performed.

Experiment [2] has as its system U87-MG. Briefly: Matrigel invasion comparison with EGFR inhibitor and ANO1 inhibitor in human glioblastoma. In kind it is cell-based. As to conditions: 4 μM AON-MG23-02, 16 hours, vs untreated, Osimertinib, 100 μM CaCCinh-A01. The method, then:
A human glioblastoma cell line U87-MG was seeded at a density of 6×10^4 cells/well on the top of a Matrigel-coated filter (Transwell invasion chambers, Corning), treated with 4 μM of the compound AON-MG23-02 of the present invention, […] of the EGFR inhibitor Osimertinib, 100 μM of the ANO1 inhibitor CaCCinh-A01, or a combination of 4 μM of Osimertinib and 100 μM of CaCCinh-A01, and then cultured at 37 °C in a CO2 incubator for 16 hours. After the culturing was completed, the cells were fixed and stained using a Diff-Quick stain kit (Sysmex, Kobe, Japan). Images of the stained cells were taken under a microscope, the cells were counted using Image J software, and statistical analysis was then performed.

Experiment [3] has as its system ANO1. Kind of experiment: Western blot comparison with EGFR inhibitor and ANO1 inhibitor: ANO1 expression. As to conditions: U87-MG; 4 μM AON-MG23-02; 48 hours; vs untreated, 2 μM Osimertinib, 100 μM CaCCinh-A01, and their combination. In kind it is cell-based, human. The method, then: (§1) The inhibitory effects of the compound AON-MG23-02 of the present invention, the EGFR inhibitor Osimertinib, and the ANO1 inhibitor CaCCinh-A01 on the expression of ANO1, EGFR, and pEGFR proteins in a glioblastoma cell line were compared. A human glioblastoma cell line U87-MG was seeded at a density of 100×10^4 cells/dish in a 60 mm dish, and cultured for 24 hours. Thereafter, the cells were treated with 4 μM of AON-MG23-02, 2 μM of the EGFR inhibitor Osimertinib, 100 μM of the ANO1 inhibitor CaCCinh-A01, or a combination of 2 μM of Osimertinib and 100 μM of CaCCinh-A01, and cultured for 48 hours. The cultured cells were harvested and the harvested cells were lysed for Western blotting. An anti-ANO1 antibody (Abcam, ab53212), an anti-pEGFR antibody (Cell Signaling, #4407S), an anti-EGFR antibody (Cell Signaling, #4267S), and an anti-ACTIN antibody (sigma, #A2066) were used as antibodies for Western blotting. Protein concentration was quantified using the BSA method (a protein quantitation assay, a bovine serum albumin assay) (Pierce, Cat. 23225). […] The amount of each protein was quantified and analyzed using Image J software.

In experiment [4] the test system is EGFR. Kind of experiment: Western blot comparison with EGFR inhibitor and ANO1 inhibitor: EGFR expression. In kind it is cell-based, human. Conditions: U87-MG; 4 μM AON-MG23-02; 48 hours; vs untreated, 2 μM Osimertinib, 100 μM CaCCinh-A01, and their combination. How it is done:
as §1
On the technique in general: In western blotting, separated proteins are transferred to a membrane and probed.

Another experiment has as its system pEGFR. Kind of experiment: Western blot comparison with EGFR inhibitor and ANO1 inhibitor: pEGFR expression. As to conditions: U87-MG; 4 μM AON-MG23-02; 48 hours; vs untreated, 2 μM Osimertinib, 100 μM CaCCinh-A01, and their combination. In kind it is cell-based, human. How it is done:
as §1

Experiment [5] has as its system ANO1. Kind of experiment: Western blot: AON-MG23-02 derivatives, ANO1 protein expression in glioblastoma cell line. In kind it is cell-based, human. Conditions: U87-MG; 0, 8, 16, and 32 μM; 48 hours; compared to the untreated control. How it is done: (§2) The inhibitory effects of AON-MG23-02 derivatives AON-MG23-05, AON-MG23-06, AON-MG23-07, and AON-MG23-08 on ANO1 and EGFR protein expression in a glioblastoma cell line were compared. A human glioblastoma cell line U87-MG was seeded at a density of 100×10^4 cells/dish in a 60 mm dish, and cultured for 24 hours. Thereafter, the cells were treated with 0, 8, 16, and 32 μM of the AON-MG23-05, AON-MG23-06, AON-MG23-07, and AON-MG23-08 derivatives, respectively, and cultured for 48 hours. The cultured cells were harvested, and the harvested cells were lysed for Western blotting. An anti-ANO1 antibody (Abcam, ab53212), an anti-pEGFR antibody (Cell Signaling, #4407S), an anti-EGFR antibody (Cell Signaling, #4267S), and an anti-ACTIN antibody (sigma, #A2066) were used as antibodies for Western blotting. Protein concentration was quantified using the […] (a protein quantitation assay, a bovine serum albumin assay) (Pierce, Cat. 23225). […] The amount of each protein was quantified and analyzed using Image J software.

Experiment [6] deals with EGFR. Briefly: Western blot: AON-MG23-02 derivatives, EGFR protein expression in glioblastoma cell line. It counts as cell-based, human. Conditions: U87-MG; 0, 8, 16, and 32 μM; 48 hours; compared to the untreated control. How it is done:
as §2

Experiment [7] concerns U87-MG. Briefly: Matrigel invasion (metastasis inhibition) of AON-MG23-02 derivatives in human glioblastoma. As to conditions: 0, 8, 16, and 32 μM, 24 hours, compared to the untreated control. In kind it is cell-based. How it is done: A human glioblastoma cell line U87-MG was seeded at a density of 8×10^4 cells/well on the top of a Matrigel-coated filter (Transwell invasion chambers, Corning), and then treated with 0, 8, 16, and 32 μM of each of the compound derivatives AON-MG23-05, AON-MG23-06, AON-MG23-07, and AON-MG23-08 of the present invention, and cultured at 37 °C in a CO2 incubator for 24 hours. After the culturing was completed, the cells were fixed and stained using a Diff-Quick stain kit (Sysmex, Kobe, Japan). Images of the stained cells were taken under a microscope, the cells were counted using Image J software, and statistical analysis was then performed.

Each structure is given as a SMILES string.

With `COc1cc(N2CCC(N3CCN(C)CC3)CC2)ccc1Nc1ncc(Cl)c(Nc2ccccc2N(C2CC2)S(C)(=O)=O)n1` [AON-MG23-01, N-(2-((5-chloro-2-((2-methoxy-4-(4-(4-methylpiperazin-1-yl)piperidin-1-yl)phenyl)amino)pyrimidin-4-yl)amino)phenyl)-N-cyclopropylmethanesulfonamide], the “inhibition of proliferation of U87-MG cells” value in the experiment on U87-MG cells is given as “inhibits the proliferation of U87-MG cells”. In addition, the “degree of penetration into Matrigel” value with U87-MG [1] is “reduced degree of penetration into Matrigel compared to the untreated control”.
`COc1cc(N2CCC(N(C)C)CC2)ccc1Nc1ncc(Cl)c(Nc2ccccc2N(C2CC2)S(C)(=O)=O)n1` [AON-MG23-02, N-(2-((5-chloro-2-((4-(4-(dimethylamino)piperidin-1-yl)-2-methoxyphenyl)amino)pyrimidin-4-yl)amino)phenyl)-N-cyclopropylmethanesulfonamide]: the “inhibition of proliferation of U87-MG cells” value in the experiment on U87-MG cells is given as “inhibits the proliferation of U87-MG cells”. The “degree of penetration into Matrigel” value in the experiment with U87-MG [1] is “reduced degree of penetration into Matrigel compared to the untreated control”. Also, the “degree of penetration into Matrigel (comparison with EGFR inhibitor and ANO1 inhibitor)” value in the experiment with U87-MG [2] was “reduced degree of penetration into Matrigel compared to the untreated control, the EGFR inhibitor-treated group, and the ANO1 inhibitor-treated group”. For the same molecule, the “expression of ANO1 protein (comparison)” value with ANO1 [3] is “reduces the expression of ANO1, EGFR, and pEGFR proteins compared to the untreated control, the EGFR inhibitor-treated group, the ANO1 inhibitor-treated group, and the EGFR inhibitor and ANO1 inhibitor combination-treated group”. Besides, in the experiment on EGFR [4], the “expression of EGFR protein (comparison)” value is “reduces the expression of ANO1, EGFR, and pEGFR proteins compared to the untreated control, the EGFR inhibitor-treated group, the ANO1 inhibitor-treated group, and the EGFR inhibitor and ANO1 inhibitor combination-treated group”. For the same molecule, the “expression of pEGFR protein (comparison)” value with pEGFR is “reduces the expression of ANO1, EGFR, and pEGFR proteins compared to the untreated control, the EGFR inhibitor-treated group, the ANO1 inhibitor-treated group, and the EGFR inhibitor and ANO1 inhibitor combination-treated group”.
Regarding `O=C1c2ccccc2CN1Cc1ccc(CCN(CCO)Cc2ccc3ccccc3c2)cc1` [AON-MG23-05, 2-(4-(2-((2-hydroxyethyl)(naphthalen-2-ylmethyl)amino)ethyl)benzyl)isoindolin-1-one], the “expression of ANO1 protein (derivatives)” value with ANO1 [5] is “reduced expression of ANO1 and EGFR proteins compared to the untreated control”. For the same molecule, the “expression of EGFR protein (derivatives)” value in the experiment on EGFR [6] is “reduced expression of ANO1 and EGFR proteins compared to the untreated control”. In addition, the “degree of penetration into Matrigel (derivatives)” value (“degree … (derivatives)” below) with U87-MG [7] is “reduced degree of penetration into Matrigel compared to the untreated control”.
For the molecule `CCN(Cc1ccc2ccccc2c1)CC(O)c1ccc(CN2Cc3ccccc3C2=O)cc1` (stereo not shown) [AON-MG23-06, 2-(4-(2-(ethyl(naphthalen-2-ylmethyl)amino)-1-hydroxyethyl)benzyl)isoindolin-1-one], the “degree … (derivatives)” value with U87-MG [7] is listed as “reduced degree of penetration into Matrigel compared to the untreated control”.
The same measure, in the same setting: with `O=C1c2ccccc2CN1Cc1ccc(CCP(=O)(Cc2ccc3ccccc3c2)Cc2ccc3ccccc3c2)cc1` [AON-MG23-07, 2-(4-(2-(bis(naphthalen-2-ylmethyl)phosphoryl)ethyl)benzyl)isoindolin-1-one] the entry was “reduced degree of penetration into Matrigel compared to the untreated control”.
As to `NC(=O)N(CCc1ccc(CN2Cc3ccccc3C2=O)cc1)Cc1ccc2ccccc2c1` [AON-MG23-08, 1-(naphthalen-2-ylmethyl)-1-(4-((1-oxoisoindolin-2-yl)methyl)phenethyl)urea], the “expression of ANO1 protein (derivatives)” value with ANO1 [5] was “reduced expression of ANO1 and EGFR proteins compared to the untreated control”. The “expression of EGFR protein (derivatives)” value in the experiment with EGFR [6] was “reduced expression of ANO1 and EGFR proteins compared to the untreated control”. In the experiment on U87-MG [7], the “degree … (derivatives)” value is on record as “reduced degree of penetration into Matrigel compared to the untreated control”.

The record behind these values is US20260374753A1, “NOVEL COMPOUND AND PREPARATION METHOD THEREFOR” (ASTRION INC., priority 2023, published 2026).
